Measured values published in patent publication US20080051429A1, “USE OF 4-AMINO-PIPERIDINES FOR TREATING SLEEP DISORDERS” (priority 2006, published 2008).
Values belong to the compound of their own block, whether it stands above or below them.

Key:
5HT6A = target: T1, 5HT6A (Homo sapiens, UniProt P50406); assay: R-SAT broad profiling; format: cell-based; settings: inverse; read-out: pEC50 or pIC50 (converted)
T1 construct: expressed in transfected cells; host or cells: NIH3T3
Protocol: (§1) The functional receptor assay, Receptor Selection and Amplification Technology (R-SAT), was used (with minor modifications from that previously described U.S. Pat. No. 5,707,798) to screen compounds for efficacy at the 5-HT2A receptor. Briefly, NIH3T3 cells were grown in 96 well tissue culture plates to 70-80% confluence. Cells were transfected for 12-16 hours with plasmid DNAs using superfect (Qiagen Inc.) as per manufacture's protocols. R-SAT's were generally performed with 50 ng/well of receptor and 20 ng/well of Beta-galactosidase plasmid DNA. All receptor and G-protein constructs used were in the pSI mammalian expression vector (Promega Inc) as described in U.S. Pat. No. 5,707,798. The 5HT2A receptor gene was amplified by nested PCR from brain cDNA using the oligodeoxynucleotides based on the published sequence (see Saltzman et. al. Biochem. Biophys. Res. Comm. 181:1469-78 (1991)). Large-scale transfections, cells were transfected for 12-16 hours, then trypsinized and frozen in DMSO. Frozen cells were later thawed, plated at 10,000-40,000 cells per well of a 96 well plate that contained drug. With both methods, cells were then grown in a humidified atmosphere with 5% ambient CO2 for five days. Media was then removed from the plates and marker gene activity was measured by the addition of the beta-galactosidase substrate ONPG (in PBS with 5% NP-40). The resulting colorimetric reaction was measured in a spectrophotometric plate reader (Titertek Inc.)at […]. All data were analyzed using the computer program XLFit (IDBSm). Efficacy is the percent maximal repression compared to repression by a control compound (ritanserin in the case of 5HT2A). pIC50 is the negative of the log(IC50), where IC50 is the calculated concentration in Molar that produces 50% maximal repression.
(§2) The R-SAT assay (described above in example 289) was used to investigate the selectivity of 4-(4-Fluoro-benzyl)-3-(4-isobutoxy-benzyl)-8-methyl-1-oxa-3,8-diaza-spiro[4.5]decan-2-one.

alpha 2C = target: T2, alpha 2C (Homo sapiens, UniProt P18825); assay: R-SAT broad profiling; format: cell-based; settings: read-out: pEC50 or pIC50 (converted)
T2 construct: expressed in transfected cells; host or cells: NIH3T3
T2 sequence (P18825 1-462): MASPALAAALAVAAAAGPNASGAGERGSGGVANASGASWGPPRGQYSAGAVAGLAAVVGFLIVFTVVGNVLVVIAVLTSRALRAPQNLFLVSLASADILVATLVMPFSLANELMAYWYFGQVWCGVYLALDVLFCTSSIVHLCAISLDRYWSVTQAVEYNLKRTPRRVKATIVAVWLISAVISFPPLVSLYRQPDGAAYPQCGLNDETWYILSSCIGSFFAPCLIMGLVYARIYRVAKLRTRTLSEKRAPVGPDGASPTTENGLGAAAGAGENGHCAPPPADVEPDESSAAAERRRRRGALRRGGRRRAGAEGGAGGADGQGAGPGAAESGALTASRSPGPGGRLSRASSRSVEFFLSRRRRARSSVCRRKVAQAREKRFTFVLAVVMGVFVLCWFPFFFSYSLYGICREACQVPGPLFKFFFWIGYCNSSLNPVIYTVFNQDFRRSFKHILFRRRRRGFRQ
Protocol: as §1, §2

D1 = target: T3, D1 (Homo sapiens, UniProt P21728); assay: R-SAT broad profiling; format: cell-based; settings: read-out: pEC50 or pIC50 (converted)
T3 construct: expressed in transfected cells; host or cells: NIH3T3
T3 sequence (P21728 whole entry): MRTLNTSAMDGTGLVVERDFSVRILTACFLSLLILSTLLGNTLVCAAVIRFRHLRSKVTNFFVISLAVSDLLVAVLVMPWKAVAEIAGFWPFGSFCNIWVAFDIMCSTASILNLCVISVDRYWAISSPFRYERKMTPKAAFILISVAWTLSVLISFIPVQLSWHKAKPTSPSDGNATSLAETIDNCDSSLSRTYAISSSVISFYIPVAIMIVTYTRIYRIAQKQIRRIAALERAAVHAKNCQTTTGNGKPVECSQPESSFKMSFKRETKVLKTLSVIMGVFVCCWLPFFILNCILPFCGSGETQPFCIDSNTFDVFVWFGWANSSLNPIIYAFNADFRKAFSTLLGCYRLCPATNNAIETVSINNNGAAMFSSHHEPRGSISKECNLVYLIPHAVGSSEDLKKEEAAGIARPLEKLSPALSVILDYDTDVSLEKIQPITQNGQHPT
Protocol: as §1, §2

m3 = target: T4, m3 (Homo sapiens, UniProt P20309); assay: R-SAT broad profiling; format: cell-based; settings: read-out: pEC50 or pIC50 (converted)
T4 construct: expressed in transfected cells; host or cells: NIH3T3
T4 sequence (P20309 whole entry): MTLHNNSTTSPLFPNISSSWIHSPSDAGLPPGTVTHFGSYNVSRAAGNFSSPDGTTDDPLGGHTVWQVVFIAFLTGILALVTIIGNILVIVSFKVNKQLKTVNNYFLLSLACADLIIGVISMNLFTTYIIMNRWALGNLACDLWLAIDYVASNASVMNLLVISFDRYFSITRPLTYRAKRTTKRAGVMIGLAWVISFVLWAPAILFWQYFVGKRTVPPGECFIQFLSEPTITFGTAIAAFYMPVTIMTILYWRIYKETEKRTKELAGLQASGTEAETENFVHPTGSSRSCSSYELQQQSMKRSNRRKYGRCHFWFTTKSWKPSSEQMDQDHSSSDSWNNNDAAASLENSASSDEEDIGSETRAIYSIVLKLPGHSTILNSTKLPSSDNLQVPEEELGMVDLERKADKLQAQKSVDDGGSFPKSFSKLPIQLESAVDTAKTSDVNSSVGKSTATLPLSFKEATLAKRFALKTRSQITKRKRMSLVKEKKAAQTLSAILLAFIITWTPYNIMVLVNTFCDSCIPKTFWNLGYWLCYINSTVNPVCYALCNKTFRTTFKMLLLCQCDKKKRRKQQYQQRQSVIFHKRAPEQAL
Protocol: as §1, §2

m2 = target: T5, m2 (Homo sapiens, UniProt P08172); assay: R-SAT broad profiling; format: cell-based; settings: agonist; read-out: pEC50 or pIC50 (converted)
T5 construct: expressed in transfected cells; host or cells: NIH3T3
T5 sequence (P08172 1-466): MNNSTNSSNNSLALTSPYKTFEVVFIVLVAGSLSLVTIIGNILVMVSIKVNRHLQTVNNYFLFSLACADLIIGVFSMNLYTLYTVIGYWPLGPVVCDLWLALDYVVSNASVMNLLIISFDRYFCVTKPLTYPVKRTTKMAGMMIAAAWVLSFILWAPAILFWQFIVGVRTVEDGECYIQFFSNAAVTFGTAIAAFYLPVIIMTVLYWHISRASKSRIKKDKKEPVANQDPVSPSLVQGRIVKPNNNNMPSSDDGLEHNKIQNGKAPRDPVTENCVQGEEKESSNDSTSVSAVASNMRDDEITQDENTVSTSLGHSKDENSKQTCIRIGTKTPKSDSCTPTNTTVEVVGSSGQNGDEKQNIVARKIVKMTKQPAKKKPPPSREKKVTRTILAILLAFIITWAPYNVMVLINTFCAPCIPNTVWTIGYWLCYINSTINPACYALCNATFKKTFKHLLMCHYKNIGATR
Protocol: as §1, §2

Plasma levels (LC/MS/MS) = format: in vivo, human; settings: after 13 days; for plasma concentration, Mean: n = 9
Protocol: Plasma Levels: Blood samples were collected into Vacutainer® (dry sodium heparin, green top tube, 6 mL capacity) on Day −1 and again on Day 14 (pre-dose). The time interval between blood collection and freezing of the plasma was no longer than 45 minutes. Within 45 minutes of collection, the plasma fractions were separated by centrifugation at 3,000 rotations per minutes for 10 minutes. The plasma fractions were divided and transferred into two properly labeled storage tubes and frozen at approximately −70° C. Plasma samples were evaluated for N-(1-methylpiperidin-4-yl)-N-(4-fluorophenylmethyl)-N′-(4-(2-methylpropyloxy)phenylmethyl)carbamide using a validated high performance liquid chromatography/tandem mass spectrometric (LC/MS/MS) assay.

healthy volunteers = assay: Clinical safety evaluation; format: in vivo, human
Protocol: Safety: 3-positional vital signs, ECGs, body temperature, and respiratory rates as well as blood chemistries, hematology, and urinalysis served as safety measures. Safety measures were assessed at screening, baseline (Day −1), Day 1, Day 2, Day 13, and Day 14. Any observed or reported adverse events were recorded. Blood samples were taken on Day −1 (baseline) and on Day 14 (steady state). Two weeks after the termination of treatment administration (Day 28), an end-of-study visit was conducted, and included a clinical safety evaluation.

T1 sequence (P50406 whole entry): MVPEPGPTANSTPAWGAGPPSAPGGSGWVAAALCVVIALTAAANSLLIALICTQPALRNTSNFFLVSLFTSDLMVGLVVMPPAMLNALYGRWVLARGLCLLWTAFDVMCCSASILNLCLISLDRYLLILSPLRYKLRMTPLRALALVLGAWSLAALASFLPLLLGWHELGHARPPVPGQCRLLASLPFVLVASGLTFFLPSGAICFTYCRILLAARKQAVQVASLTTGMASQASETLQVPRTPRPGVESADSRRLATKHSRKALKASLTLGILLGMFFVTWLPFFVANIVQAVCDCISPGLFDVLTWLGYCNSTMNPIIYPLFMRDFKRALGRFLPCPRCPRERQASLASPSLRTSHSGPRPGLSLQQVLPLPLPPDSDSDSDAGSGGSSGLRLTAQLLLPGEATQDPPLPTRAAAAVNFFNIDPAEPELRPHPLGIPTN

SMILES: CC(C)COc1ccc(CN2C(=O)OC3(CCN(C)CC3)C2Cc2ccc(F)cc2)cc1.Cl (racemic) [Example 69NLS75, 4-(4-Fluorobenzyl)-3-(4-isobutoxybenzyl)-8-methyl-1-oxa-3,8-diazaspiro[4.5]decan-2-one, hydrochloride]
IC50 (5HT6A): > 3.16 µM
EC50 (alpha 2C; agonist): > 3.16 µM
IC50 (alpha 2C; antagonist): > 3.16 µM
EC50 (D1; agonist): > 3.16 µM
IC50 (D1; antagonist): > 3.16 µM
EC50 (m3; agonist): > 3.16 µM
IC50 (m3; inverse): > 3.16 µM
EC50 (m2): > 3.16 µM

plasma concentration, Maximum (Plasma levels (LC/MS/MS); 1 mg once daily): 2.33 ng/mL
plasma concentration, Median (Plasma levels (LC/MS/MS); 1 mg once daily): 1.750 ng/mL
plasma concentration, Minimum (Plasma levels (LC/MS/MS); 1 mg once daily): 0.92 ng/mL
plasma concentration, Mean (Plasma levels (LC/MS/MS); 1 mg once daily): 1.628 ng/mL
plasma concentration, Maximum (Plasma levels (LC/MS/MS); 2.5 mg once daily): 5.55 ng/mL
plasma concentration, Median (Plasma levels (LC/MS/MS); 2.5 mg once daily): 3.360 ng/mL
plasma concentration, Minimum (Plasma levels (LC/MS/MS); 2.5 mg once daily): 2.07 ng/mL
plasma concentration, Mean (Plasma levels (LC/MS/MS); 2.5 mg once daily): 3.647 ng/mL
plasma concentration, Maximum (Plasma levels (LC/MS/MS); 5 mg once daily): 13.00 ng/mL
plasma concentration, Median (Plasma levels (LC/MS/MS); 5 mg once daily): 8.720 ng/mL
plasma concentration, Minimum (Plasma levels (LC/MS/MS); 5 mg once daily): 5.91 ng/mL
plasma concentration, Mean (Plasma levels (LC/MS/MS); 5 mg once daily): 8.516 ng/mL
plasma concentration, Maximum (Plasma levels (LC/MS/MS); 20 mg once daily): 52.70 ng/mL
plasma concentration, Median (Plasma levels (LC/MS/MS); 20 mg once daily): 34.100 ng/mL
plasma concentration, Minimum (Plasma levels (LC/MS/MS); 20 mg once daily): 21.90 ng/mL
plasma concentration, Mean (Plasma levels (LC/MS/MS); 20 mg once daily): 35.033 ng/mL
SMILES: CC(C)COc1ccc(CNC(=O)N(Cc2ccc(F)cc2)C2CCN(C)CC2)cc1 [N-(1-methylpiperidin-4-yl)-N-(4-fluorophenylmethyl)-N′-(4-(2-methylpropyloxy)phenylmethyl)carbamide]
safety and tolerability (healthy volunteers; 1 to 20 mg once daily, 14 days): safe and well tolerated
serious adverse events (healthy volunteers; 1 to 20 mg once daily, 14 days): no serious adverse events
nature of adverse events (healthy volunteers; comparable across placebo and treated groups): mild to moderate
